{
  "source": "patent US5728686A",
  "about": "“Alkylxanthine phosphonates and alkylxanthine phosphine oxides and their use as pharmaceuticals” (Hoechst Aktiengesellschaft, priority 1996, dated 1998)",
  "key": {"[1]": {"tested_on": "Endotoxin (LPS) from Salmonella abortus equi", "experiment": "effect on endotoxin fatality (LPS-induced septic shock)", "type": "in vivo, female NMRI mice", "details": "25 mg/kg i.p. at the same time as LPS 60 mg/kg i.p.; 72 hours; vs placebo control", "method": "2. Test for effect on endotoxin fatality\nIndividual injections of lipopolysaccharide (LPS), from gram-negative bacteria, lead via a series of various symptoms to septic shock, which usually turns out to be fatal. Endotoxin (LPS) from Salmonella abortus equi in a dose of 60 mg/kg i.p. leads to shock and to death with at most 72 h p.a. (the dose of 60 mg/kg corresponds to approximately 1.20 mg of LPS/animal).\nThe experimental animals used are female NMRI mice from the Hoechst AG/Hattersheim animal breeding unit having a body weight of 22 to 24 g.\nThe test substances administered intraperitoneally (i.p.) in an administration volume of 10 ml/kg at the same time as the LPS. The number of surviving animals after 72 hours' LPS administration is indicated in comparison to a placebo control. The number of tested animals per group is 5; dose 25 mg/kg."}, "phosphodiesterase III": {"tested_on": "phosphodiesterase III", "experiment": "inhibition of phosphodiesterase III activity", "type": "biochemical", "details": "at 100 μM", "method": "5. Inhibition of phosphodiesterase III activity\nThe test is carried out using phosphodiesterase from Boehringer Mannheim (Mannheim, Germany), Order No. 108 243 according to the method of T. SAEKI, I. SAITO, Biochem. Pharm. 46, No. 5, […], pages 833-839.\nAll numerical values are indicated in % inhibition of the enzyme activity at 100 μM of the corresponding compound of the formula I."}, "[2]": {"tested_on": "isolated guinea pig lung strips, Platelet activating factor (PAF)", "experiment": "antagonist of PAF-induced contraction of isolated guinea pig lung strips", "type": "cell-based", "details": "Cavia porcellus, read-out: Anticontractile action (lung), PAF: concentration range corresponding to the IC50 value", "procedure,_shortened": "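Guinea pig lung strips, 3 mm wide, held at 4 g preload in modified Krebs-Henseleit at 37° C, gassed 95% O2/5% CO2, contracted by PAF or LTD4. Compound given cumulatively at 1, 3, 6 and 10 μg/ml; value is the concentration in μg/ml giving IC50-level effect.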"}, "[3]": {"tested_on": "isolated guinea pig trachea, agonist substance P", "experiment": "antagonist of substance P-induced contraction of isolated guinea pig trachea", "type": "cell-based", "details": "Cavia porcellus, individual doses, 37° C., read-out: Anticontractile action (trachea), SP antagonism: concentration range for dilatation corresponding to ED50 range", "excerpt": "3. Activity as antagonist of the contraction of isolated guinea pig trachea\nThe compounds of the formula I are used as antagonists of the contraction of isolated guinea pig trachea. The agonists employed were PGF2α (Upjohn, Germany), calcium ionophore A23187 (Calbiochem, Bad Soden, Germany), and substance P (American Peptide Comp., USA):\nThe antagonism is possible on the one hand due to specific receptor antagonists, and on the other hand also due to inhibition of the subsequent signal pathway. Preparations which directly or indirectly increase the intracellular concentration of cyclic nucleotides in particular show spasmolytic properties here.\nPreparation of the organ sections and experimental procedure:\nThe guinea pig is sacrificed by means of terminal laughing gas anaesthesia. The trachea is exposed along its entire length and cut into 15 individual cartilage rings. 5 rings in each case are tied together to give a chain and fixed in the organ bath under a preload of 3 g. After an equilibration time of 45 minutes, a contraction is produced using the agonist. The antagonist (test preparation) is added cumulatively on the plateau of the maximum. Evaluation is carried out in % force change relative to the contraction maximum. The experimental procedure is carried out at 37° C.; the physiological nutrient solution used is a modified Krebs-Henseleit solution through which is bubbled 95% by volume of O2, 5% by volume of CO2.\nExperimental animals: albino guinea pigs (Hattersheim Animal Breeding Institute, Kastengrund, Germany), weight: 200 to 300 g, sex male or female.\nVehicle: double-distilled water, ethanol or isopropanol; administration: into the organ bath number of administration: cumulative, in SP individual doses\nAll numerical values are indicated in the unit μg/ml and relate to the concentration range of the tested compound of the formula I according to the invention (see example numbers in Table 1) which is necessary in order to cause a dilatation which corresponds to the ED50 range."}},
  "data": [
    {"smiles": "CCOP(=O)(CCCn1cnc2c1c(=O)[nH]c(=O)n2C)OCC", "note": "[Example 2, Diethyl [4-(3-methylxanthin-7-yl)propyl]phosphonate]", "values": [
      {"measurement": "Inhibition of mortality", "setting": "[1]", "result": 100, "unit": "%"},
      {"measurement": "PDE III Inhibition", "setting": "phosphodiesterase III", "result": 65, "unit": "%"},
      {"measurement": "IC50", "setting": "[2]", "result": "3 to 6", "unit": "mg/L"},
      {"measurement": "EC50", "setting": "[3]", "result": "10 to 30", "unit": "mg/L"}
    ]}
  ]
}
